# Test results taken from patent publication US20220275274A1, “NEUTRAL FLUORESCENT MITOCHONDRIAL MARKER BASED ON NITROGEN-CONTAINING HETEROCYCLE, PREPARATION METHOD AND USE THEREOF” (SOOCHOW UNIVERSITY, priority 2020, published 2022).
# How the values were obtained:
# [1] = ultraviolet absorption and fluorescence emission in chloroform; format: physicochemical; conditions: 10 μM; for maximum emission wavelength (fluorescence spectrum): excitation wavelength and slit width per dye
# Method: The ultraviolet absorption and fluorescence emission of the dyes prepared in the examples and comparative examples (at a concentration of 10 μM) in chloroform were tested. The horizontal ordinate is the wavelength, and the vertical ordinate is the absorbance and fluorescence intensity, respectively.
# In the ultraviolet-visible absorption spectrum, dye 1a has the maximum absorption at 378 nm; and in the fluorescence spectrum, dye 1a has the highest fluorescence intensity at 452 nm, where the excitation wavelength is 370 nm, and the slit width is 3 nm/1.5 nm. In the ultraviolet-visible absorption spectrum, dye 1b has a maximum absorption wavelength of 382 nm; and in the fluorescence spectrum, dye 1b has a maximum emission wavelength of 485 nm, where the excitation wavelength is 374 nm, and the slit width is 3 nm/1.5 nm. In the ultraviolet-visible absorption spectrum, dye 1c has a maximum absorption wavelength of 385 nm; and in the fluorescence spectrum, dye 1c has a maximum emission wavelength of 454 nm, where the excitation wavelength is 380 nm, and the slit width is 3 nm/1.5 nm. In the ultraviolet-visible absorption spectrum, dye 2a has the maximum absorption at 364 nm; and in the fluorescence spectrum, dye 2a has the highest fluorescence intensity at 480 nm, where the excitation wavelength is 374 nm, and the slit width is 3 nm/1.5 nm. In the ultraviolet-visible absorption spectrum, dye 2b has a maximum absorption wavelength of 360 nm; and in the fluorescence spectrum, dye 2b has a maximum emission wavelength of 458 nm, where the excitation wavelength is 370 nm, and the slit width is 3 nm/1.5 nm. In the ultraviolet-visible absorption spectrum, dye 2c has a maximum absorption wavelength of 356 nm; and in the fluorescence spectrum, dye 2c has a maximum emission wavelength of 441 nm, where the excitation wavelength is 360 nm, and the slit width is 3 nm/3 nm. In the ultraviolet-visible absorption spectrum, dye 3a has the maximum absorption at 548 nm; and in the fluorescence spectrum, dye 3a has the highest fluorescence intensity at 606 nm, where the excitation wavelength is 560 nm, and the slit width is 1.5 nm/1.5 nm. In the ultraviolet-visible absorption spectrum, dye 3b has a maximum absorption wavelength of 549 nm; and in the fluorescence spectrum, dye 3b has a maximum emission wavelength of 608 nm, where the excitation wavelength is 540 nm, and the slit width is 1.5 nm/1.5 nm. In the ultraviolet-visible absorption spectrum, dye 3c has a maximum absorption wavelength of 554 nm; and in the fluorescence spectrum, dye 3c has a maximum emission wavelength of 611 nm, where the excitation wavelength is 540 nm, and the slit width is 1.5 nm/1.5 nm. In the ultraviolet-visible absorption spectrum, dye 3d has a maximum absorption wavelength of 556 nm; and in the fluorescence spectrum, dye 3d has a maximum emission wavelength of 619 nm, where the excitation wavelength is 570 nm, and the slit width is 1.5 nm/1.5 nm. In the ultraviolet-visible absorption spectrum, dye 4 has a maximum absorption wavelength of 501 nm; and in the fluorescence spectrum, dye 4 has a maximum emission wavelength of 515 nm, where the excitation wavelength is 495 nm, and the slit width is 1.5 nm/1.5 nm. The above UV absorption and fluorescence emission test methods are conventional methods.
# HeLa cells = experiment: cell imaging, colocalization with red mitochondrial marker Mito Tracker Red CMXRos; format: cell-based; conditions: dye 1 μM, vs Mito Tracker Red CMXRos (100 nm); for colocalization coefficient: blue and red channel
# Method: (§1) Dye 1a was formulated into a mother liquor in DMSO (dimethyl sulfoxide), and then added to a conventional cell culture medium to give a concentration of dye 1a in the cell culture medium of 1 μM. L929 cells and HeLa cells were respectively co-cultured for 10 min in an incubator at saturated humidity, 37° C., and 5% CO2 (the experiment was same below). The existing red mitochondrial marker Mito Tracker® Red CMXRos (100 nm) was added, and the cells were co-incubated for another 10 min, washed three times with a PBS buffer, and imaged under a laser confocal microscope. In the blue channel, light of 405 nm was used for excitation, and a fluorescence signal in the range of 410-500 nm was collected; and in the red channel, light of 561 nm was used for excitation, and a fluorescence signal in the range of 570-750 nm was collected. […] The results are shown in FIG. 14, where (a) and (g) are the bright-field images; (b) and (h) are the cell images with dye 1a; (c) and (i) are the cell images with the red mitochondrial marker; (d) and (j) are overlapped images with blue channel and red channel, (e) and (k) show the fluorescence intensity of the ROI line in the overlapped images; and (f) and (1) show colocalization assays, with a colocalization coefficient of 0.90 (L929) and 0.84 (HeLa) respectively.
# (§2) The experiment method with dye 1b, dye 1c, dye 2a, dye 2b, and dye 2c (1 μM) is the same as that with dye 1a above, except that dye 1a is replaced. In FIG. 15, (a) and (g) are the bright-field images; (b) and (h) are the cell images with dye 1b; (c) and (i) are the cell images with the red mitochondrial marker; (d) and (j) are overlapped images with blue channel and red channel, (e) and (k) show the fluorescence intensity of the ROI line in the overlapped images; and (f) and (1) show colocalization assays, with a colocalization coefficient of 0.81 (L929) and 0.83 (HeLa) respectively. In FIG. 16, (a) and (g) are the bright-field images; (b) and (h) are the cell images with dye 1c; (c) and (i) are the cell images with the red mitochondrial marker; (d) and (j) are overlapped images with blue channel and red channel, (e) and (k) show the fluorescence intensity of the ROI line in the overlapped images; and (f) and (1) show a colocalization assay, both having a colocalization coefficient of 0.77. In FIG. 17, (a) and (g) are the bright-field images; (b) and (h) are the cell images with dye 2a; (c) and (i) are the cell images with the red mitochondrial marker; (d) and (j) are overlapped images with blue channel and red channel, (e) and (k) show the fluorescence intensity of the ROI line in the overlapped images; and (f) and (1) show colocalization assays, with a colocalization coefficient of 0.79 (L929) and 0.80 (HeLa) respectively. In FIG. 18, (a) and (g) are the bright-field images; (b) and (h) are the cell images with dye 2b; (c) and (i) are the cell images with the red mitochondrial marker; (d) and (j) are overlapped images with blue channel and red channel, (e) and (k) show the fluorescence intensity of the ROI line in the overlapped images; and (f) and (1) show colocalization assays, with a colocalization coefficient of 0.85 (L929) and 0.79 (HeLa) respectively. In FIG. 19, (a) and (g) are the bright-field images; (b) and (h) are the cell images with dye 2c; (c) and (i) are the cell images with the red mitochondrial marker; (d) and (j) are overlapped images with blue channel and red channel, (e) and (k) show the fluorescence intensity of the ROI line in the overlapped images; and (f) and (1) show colocalization assays, with a colocalization coefficient of 0.82 (L929) and 0.84 (HeLa) respectively.
# Dye 4 was formulated into a mother liquor in DMSO, and then added to a conventional cell culture medium to give a concentration of dye 4 in the cell culture medium of 1 μM. HeLa cells were co-cultured for 10 min in an incubator at saturated humidity, 37° C., and 5% CO2. […]
# L929 cells = experiment: as above; format: cell-based; conditions: dye 1 μM; for mitochondria labeling ability (blue mitochondrial marker): L929 (normal) and HeLa (cancer) cells, vs Mito Tracker Red CMXRos; for colocalization coefficient: L929 cells, vs Mito Tracker Red CMXRos (100 nm), blue and red channel
# Method: as §1, §2
compound,measurement,setting,value
CC1=CC(C)=[N+]2C1=C(c1ccc(-c3ccc4[nH]ncc4c3)cc1)c1c(C)cc(C)n1[B-]2(F)F [dye 4],maximum absorption wavelength (ultraviolet-visible absorption spectrum),[1],501 nm
same,maximum emission wavelength (fluorescence spectrum),[1],515 nm
same,overlap with the red mitochondrial marker,HeLa cells; green and red channel,cannot be overlapped well with the red mitochondrial marker
CCCCN1C(=O)c2cccc3c(-c4cnc5[nH]ncc5c4)ccc(c23)C1=O [dye 2c],maximum absorption wavelength (ultraviolet-visible absorption spectrum),[1],356 nm
same,maximum emission wavelength (fluorescence spectrum),[1],441 nm
same,mitochondria labeling ability (blue mitochondrial marker),L929 cells,mitochondria labeling ability in both normal cells and cancer cells
same,colocalization coefficient,L929 cells,0.82
same,colocalization coefficient,HeLa cells,0.84
CCCCN1C(=O)c2cccc3c(-c4cnc5[nH]ccc5c4)ccc(c23)C1=O [dye 2b],maximum absorption wavelength (ultraviolet-visible absorption spectrum),[1],360 nm
same,maximum emission wavelength (fluorescence spectrum),[1],458 nm
same,mitochondria labeling ability (blue mitochondrial marker),L929 cells,mitochondria labeling ability in both normal cells and cancer cells
same,colocalization coefficient,L929 cells,0.85
same,colocalization coefficient,HeLa cells,0.79
CCN(CC)c1ccc2c(C)c(-c3cnc4[nH]ncc4c3)c(=O)oc2c1 [dye 1c],maximum absorption wavelength (ultraviolet-visible absorption spectrum),[1],385 nm
same,maximum emission wavelength (fluorescence spectrum),[1],454 nm
same,mitochondria labeling ability (blue mitochondrial marker),L929 cells,mitochondria labeling ability in both normal cells and cancer cells
same,colocalization coefficient,L929 cells,0.77
same,colocalization coefficient,HeLa cells,0.77
CCN(CC)c1ccc2c(C)c(-c3cnc4[nH]ccc4c3)c(=O)oc2c1 [dye 1b],maximum absorption wavelength (ultraviolet-visible absorption spectrum),[1],382 nm
same,maximum emission wavelength (fluorescence spectrum),[1],485 nm
same,mitochondria labeling ability (blue mitochondrial marker),L929 cells,mitochondria labeling ability in both normal cells and cancer cells
same,colocalization coefficient,L929 cells,0.81
same,colocalization coefficient,HeLa cells,0.83
CCCCN1C(=O)c2cccc3c(-c4ccc5[nH]ncc5c4)ccc(c23)C1=O [dye 2a],maximum absorption wavelength (ultraviolet-visible absorption spectrum),[1],364 nm
same,maximum emission wavelength (fluorescence spectrum),[1],480 nm
same,mitochondria labeling ability (blue mitochondrial marker),L929 cells,mitochondria labeling ability in both normal cells and cancer cells
same,colocalization coefficient,L929 cells,0.79
same,colocalization coefficient,HeLa cells,0.80
CCN(CC)c1ccc2c(C)c(-c3ccc4[nH]ncc4c3)c(=O)oc2c1 [dye 1a],maximum absorption wavelength (ultraviolet-visible absorption spectrum),[1],378 nm
same,maximum emission wavelength (fluorescence spectrum),[1],452 nm
same,mitochondria labeling ability (blue mitochondrial marker),L929 cells,mitochondria labeling ability in both normal cells and cancer cells
same,colocalization coefficient,L929 cells,0.90
same,colocalization coefficient,HeLa cells,0.84
